Values quoted from earlier work, collected in US20050201949A1, “Pharmaceutical formulations” (priority 2003, published 2005).
Counter-ions that a name gives are not always drawn.

Details: solid tablets with a lactose excipient; Maillard reaction postulated

Degradation in the presence of lactose excipient: undergoes degradation
Compound: CNCCC(Oc1ccc(C(F)(F)F)cc1)c1ccccc1 (stereo not shown) [fluoxetine hydrochloride]
